# Results reported in patent publication US12708671B2, “Nanometric pharmaceutical composition in the form of liposomes or nanoemulsion containing specific sequences of interference RNA” (UNIVERSIDADE FEDERAL DO RIO GRANDE DO SUL, priority 2019, dated 2026).
# Tests used:
# [1] = test system: C6 glioma cells; assay: C6 glioma cell proliferation by counting in newbauer chamber; type: cell-based, rat; conditions: 100 μM, 48 h, compared to the control
# Procedure: Primary astrocyte cultures were prepared from scratch. The cortex of newborn Wistar rats (1-2 days old) were removed and mechanically dissociated in a balanced saline solution free of Ca^+2 and Mg^+2 (pH 7.4), containing 137 mM NaCl, 5, 36 mM KCl, 0.27 mM Na2HPO4, 1.1 mM KH2PO4, and 6.1 mM glucose. After centrifugation at 1000 g for 5 min, the pellet was resuspended in culture medium (pH 7.6) containing […], 8.39 mM of HEPES buffer (4-(2-hydroxyethyl)-1-acid piperazine ethanesulfonic) (pH 7.6), 23.8 mM NaHCO3, 0.1% fungizone® (Amphotericin B, antifungal), 0.032% antibiotic garamycin and 10% FBS. […]
# After treatment with AMPCP, the medium was removed, the cells were washed with PBS buffer solution (phosphate buffered saline, solution containing NaCl and NaHPO4), trypsinized with 200 μL of 0.25% trypsin solution and counted in a newbauer chamber. […] The enzymatic activity of C6 cells was determined in an incubation medium (2 mM MgCl2, 120 mM NaCl, 5 mM KCl, 10 mM glucose, 20 mM HEPES [pH 7.4], and 2 mM AMP [adenosine monophosphate]) at 37° C. for 10 min, where the inorganic phosphate released by the action of CD73 was measured and the protein concentration was evaluated by the methods of malachite green and Coomassie Blue, respectively. Specific activity was expressed as μmol Pi released/min/mg protein. […]
# [2] = target: T1, ecto-5′-nucleotidase/CD73 (Rattus norvegicus, UniProt P21588); assay: ecto-5′-nucleotidase/CD73 enzymatic activity (AMP hydrolysis, malachite green) in C6 glioma; type: cell-based, Rattus norvergicus; conditions: for reduction of AMP hydrolysis: C6 glioma; for reduction of AMPase activity: C6 glioma cells silenced with NE/siRNA-CD73 complexes
# T1 construct: endogenous in cells; host or cells: C6 glioma cells (rat)
# T1 sequence (P21588 29-551): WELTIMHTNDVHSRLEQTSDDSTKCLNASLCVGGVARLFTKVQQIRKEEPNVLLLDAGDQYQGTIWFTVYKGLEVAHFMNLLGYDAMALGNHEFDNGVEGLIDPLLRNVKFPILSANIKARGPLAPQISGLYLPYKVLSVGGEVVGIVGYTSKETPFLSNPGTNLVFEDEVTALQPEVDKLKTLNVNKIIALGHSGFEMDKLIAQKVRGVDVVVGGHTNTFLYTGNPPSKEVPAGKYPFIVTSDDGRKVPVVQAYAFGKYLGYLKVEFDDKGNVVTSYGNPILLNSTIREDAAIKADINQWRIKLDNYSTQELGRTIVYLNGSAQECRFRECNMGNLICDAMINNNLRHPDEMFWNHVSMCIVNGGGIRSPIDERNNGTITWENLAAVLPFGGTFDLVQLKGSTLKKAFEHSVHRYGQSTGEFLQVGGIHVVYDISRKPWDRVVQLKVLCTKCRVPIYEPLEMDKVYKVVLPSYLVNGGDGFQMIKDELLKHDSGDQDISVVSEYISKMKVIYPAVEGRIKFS
# Procedure: After treatment with AMPCP, the medium was removed, the cells were washed with PBS buffer solution (phosphate buffered saline, solution containing NaCl and NaHPO4), trypsinized with 200 μL of 0.25% trypsin solution and counted in a newbauer chamber. Once the cells were treated, enzyme activity, cell viability and immunocytochemistry assays were performed for CD73, in order to determine the reliability of the tests with the NE/siRNA or Lipofectamine®/siRNA complexes. The enzymatic activity of C6 cells was determined in an incubation medium (2 mM MgCl2, 120 mM NaCl, 5 mM KCl, 10 mM glucose, 20 mM HEPES [pH 7.4], and 2 mM AMP [adenosine monophosphate]) at 37° C. for 10 min, where the inorganic phosphate released by the action of CD73 was measured and the protein concentration was evaluated by the methods of malachite green and Coomassie Blue, respectively. Specific activity was expressed as μmol Pi released/min/mg protein.
# Thus, it was evaluated how much the selective ecto-5′nucleotidase/CD73 inhibitor, AMPCP, could affect the proliferation of C6 glioma cells. The cells were exposed to increasing concentrations of AMPCP (1, 10 and 100 μM) and after 48 h cell proliferation was determined by counting in a newbauer chamber. In parallel, the activity of the enzyme ecto-5′nucleotidase/CD73 was analyzed by measuring the hydrolysis of AMP to adenosine (ADO) using the malachite green method.
# For this purpose, specific siRNA-CD73 sequences were developed (siRNA-CD73-961 and siRNA-CD73-980; Table 1) and their functionality/specificity was assessed by transfecting C6 cells using Lipofectamine® according to the manufacturer's instructions. After 48 h of transfection, CD73 expression and enzymatic activity were evaluated by immunocytochemistry and AMP hydrolysis, respectively.
# After the physical-chemical characterization and the optimization of the transfection, the effectiveness of the NE/siRNA-CD73-961 and NE/siRNA-CD73-980 complexes in silencing CD73 in C6 glioma was analyzed through immunocytochemical and AMP hydrolysis experiments.
# [3] = test system: U87MG glioma cells; assay: U87MG cell viability with temozolomide after CD73 silencing; type: cell-based; conditions: Homo sapiens, U-87 MG, U87MG previously silenced for CD73 with siRNA-CD73-441, read-out: reduction of cell viability
# Procedure: The participation of CD73 in chemoresistance was also investigated (FIG. 13). U87MG glioma cells were treated with temozolomide (100 μM) alone or in combination with siRNA-CD73-441. Temozolomide reduced cell viability by an average of 20% in glioma previously silenced for CD73.
# [4] = test system: U87MG glioma cells; assay: U87MG migration assay; type: cell-based, human
# [5] = test system: U87MG glioma cells; assay: U87MG cell proliferation by counting in Neubauer chamber; type: cell-based, human
# Procedure: To assess the impact of CD73 silencing on U87MG glioma cell proliferation in culture, cells were silenced using the siRNA-CD73-441 sequence and counted using a Neubauer chamber.
# [6] = test system: CD73; assay: CD73 enzymatic activity in U87MG after silencing; type: cell-based, human
# Procedure: (§1) The siRNA-CD73-441 sequence to silence human CD73 was evaluated for its efficiency.
# [7] = test system: CD73; assay: CD73 protein expression in U87MG after silencing; type: cell-based, human
# Procedure: as §1
compound,measurement,setting,value
"Nc1ncnc2c1ncn2[C@@H]1O[C@H](COP(=O)(O)CP(=O)(O)O)[C@@H](O)[C@H]1O [AMPCP, adenosine 5′-(α, βmethylene) -diphosphate]",decrease in cell proliferation,[1],30%
same,reduction of AMP hydrolysis,[2]; 10 μM,40%
same,reduction of AMP hydrolysis,[2]; 100 μM,50%
"Cn1nnc2c(C(N)=O)ncn2c1=O [Temozolomide, temozolomide]",cytotoxicity at 100 µM,[3],20%
Nc1ncnc2c1ncn2[C@@H]1O[C@H](CO)[C@@H](O)[C@H]1O [adenosine],migration of U87MG glioma cells,[4]; 24 hours of analysis,induced a sustained migration
same,migratory potential of CD73-silenced glioblastoma cells,[4]; adenosine treatment of cells silenced with siRNA-CD73-441,promoted recovery of the migratory potential
same,proliferation of CD73-silenced U87MG cells,[5]; ADO treatment of cells silenced with siRNA-CD73-441,restored proliferation
"siRNA-CD73-441: siRNA sequence to silence human CD73, SEQ ID No: 3, Table 1 (GGGGCCACUAGCAUCUCAAAUUUGAGAUGCUAGUGGCCCCUU; listed as RNA, chemistry not given here)",glioma cell migration,"[4]; U87MG, CD73 silencing",impaired glioma cell migration
same,decrease of CD73 enzymatic activity,[6],~ 90%
same,CD73 protein expression,[7],efficient in decreasing
same,inhibition of U87MG cell proliferation,[5]; CD73 silencing,~ 40%
"siRNA-CD73-961: interference RNA sequence for CD73 (gene ID: 58813, Rattus norvergicus), SEQ ID No: 1, Table 1 (GCCAUCAAAGCAGACAUUAACUAAUGUCUGCUUUGAUGGCUG; listed as RNA, chemistry not given here)",reduction of AMPase activity,[2],70%
"siRNA-CD73-980: interference RNA sequence for CD73 (gene ID: 58813, Rattus norvergicus), SEQ ID No: 2, Table 1 (ACCAGUGGAGGAUAAAAUUAGAAUUUUAUCCUCCACUGGUUA; listed as RNA, chemistry not given here)",reduction of AMPase activity,[2],63%
